Experimental data from US12077503B2, “Substituted cyclic amides and their use as herbicides” (FMC CORPORATION, priority 2015, dated 2024).

Columns and labels:
Format in all cases: in vivo
[1] = system: ryegrass, Italian (Italian ryegrass, Lolium multiflorum); experiment: Test A preemergence; details: Lolium multiflorum, pre-emergence, 240 h, preemergence, read-out: Plant response rating, Ryegrass, Italian; for pest or weed control at 125 g/ha: 125 g ai/ha, visual rating after approx. 10 d, 0 to 100 scale where 0 is no effect and 100 is complete control
In short: (§1)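 Preemergence soil spray on seeded pots or post-emergence spray on 1–2 leaf plants, in loam–sand blend. Greenhouse ~10 d. Visual rating 0–100 against untreated plants.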

Kochia (Kochia scoparia) [2] = experiment: Test A preemergence; details: Bassia scoparia, pre-emergence, 240 h, preemergence, read-out: Plant response rating, Kochia; for pest or weed control at 125 g/ha: 125 g ai/ha, visual rating after approx. 10 d, 0 to 100 scale where 0 is no effect and 100 is complete control; for pest or weed control at 500 g/ha: 500 g ai/ha, 0 to 100 scale, 0 = no effect, 100 = complete control
In short: as §1

[3] = system: barnyardgrass (Echinochloa crus-galli); experiment: Test A preemergence; details: Echinochloa crus-galli, pre-emergence, 240 h, preemergence, read-out: Plant response rating, Barnyardgrass; for pest or weed control at 125 g/ha: 125 g ai/ha, visual rating after approx. 10 d, 0 to 100 scale where 0 is no effect and 100 is complete control; for pest or weed control at 500 g/ha: 500 g ai/ha, 0 to 100 scale, 0 = no effect, 100 = complete control
In short: as §1

[4] = system: giant foxtail (Setaria faberii); experiment: Test A preemergence; details: Setaria faberi, pre-emergence, 240 h, preemergence, read-out: Plant response rating, Foxtail, Giant; for pest or weed control at 125 g/ha: 125 g ai/ha, visual rating after approx. 10 d, 0 to 100 scale where 0 is no effect and 100 is complete control; for pest or weed control at 500 g/ha: 500 g ai/ha, 0 to 100 scale, 0 = no effect, 100 = complete control
In short: as §1

[5] = system: pigweed (Amaranthus retroflexus); experiment: Test A preemergence; details: Amaranthus retroflexus, pre-emergence, 240 h, preemergence, read-out: Plant response rating, Pigweed; for pest or weed control at 125 g/ha: 125 g ai/ha, visual rating after approx. 10 d, 0 to 100 scale where 0 is no effect and 100 is complete control; for pest or weed control at 500 g/ha: 500 g ai/ha, 0 to 100 scale, 0 = no effect, 100 = complete control
[6] = system: ragweed (common ragweed, Ambrosia elatior); experiment: Test A preemergence; details: Ambrosia artemisiifolia, pre-emergence, 240 h, preemergence, read-out: Plant response rating, Ragweed; for pest or weed control at 125 g/ha: 125 g ai/ha, visual rating after approx. 10 d, 0 to 100 scale where 0 is no effect and 100 is complete control; for pest or weed control at 500 g/ha: 500 g ai/ha, 0 to 100 scale, 0 = no effect, 100 = complete control
In short: as §1

corn (Zea mays) = experiment: Test A postemergence; details: Zea mays, post-emergence, 240 h, 125 g ai/ha, postemergence; visual injury after approximately 10 d; 0 to 100 scale (0 no effect, 100 complete control)
In short: as §1

[7] = system: Galium (catchweed bedstraw, Galium aparine); experiment: Test A postemergence; details: Galium, post-emergence, 240 h, 125 g ai/ha, postemergence; visual injury after approximately 10 d; 0 to 100 scale (0 no effect, 100 complete control); read-out: Plant response rating, Galium
In short: as §1

[8] = system: blackgrass (Alopecurus myosuroides); experiment: Test A postemergence; details: Alopecurus myosuroides, post-emergence, 240 h, 125 g ai/ha, postemergence; visual injury after approximately 10 d; 0 to 100 scale (0 no effect, 100 complete control); read-out: Plant response rating, Blackgrass
In short: as §1

[9] = system: ryegrass, Italian (Italian ryegrass, Lolium multiflorum); experiment: Test A postemergence; details: Lolium multiflorum, post-emergence, 240 h, 125 g ai/ha, postemergence; visual injury after approximately 10 d; 0 to 100 scale (0 no effect, 100 complete control); read-out: Plant response rating, Ryegrass, Italian
In short: as §1

[10] = system: wheat (Triticum aestivum); experiment: Test A postemergence; details: Triticum aestivum, post-emergence, 240 h, 125 g ai/ha, postemergence; visual injury after approximately 10 d; 0 to 100 scale (0 no effect, 100 complete control); read-out: Plant response rating, Wheat
In short: as §1

Kochia (Kochia scoparia) [11] = experiment: Test A postemergence; details: Bassia scoparia, post-emergence, 240 h, 125 g ai/ha, postemergence; visual injury after approximately 10 d; 0 to 100 scale (0 no effect, 100 complete control); read-out: Plant response rating, Kochia
In short: as §1

[12] = system: barnyardgrass (Echinochloa crus-galli); experiment: Test A postemergence; details: Echinochloa crus-galli, post-emergence, 240 h, 125 g ai/ha, postemergence; visual injury after approximately 10 d; 0 to 100 scale (0 no effect, 100 complete control); read-out: Plant response rating, Barnyardgrass
In short: as §1

[13] = system: giant foxtail (Setaria faberii); experiment: Test A postemergence; details: Setaria faberi, post-emergence, 240 h, 125 g ai/ha, postemergence; visual injury after approximately 10 d; 0 to 100 scale (0 no effect, 100 complete control); read-out: Plant response rating, Foxtail, Giant
In short: as §1

[14] = system: pigweed (Amaranthus retroflexus); experiment: Test A postemergence; details: Amaranthus retroflexus, post-emergence, 240 h, 125 g ai/ha, postemergence; visual injury after approximately 10 d; 0 to 100 scale (0 no effect, 100 complete control); read-out: Plant response rating, Pigweed
In short: as §1

[15] = system: ragweed (common ragweed, Ambrosia elatior); experiment: Test A postemergence; details: Ambrosia artemisiifolia, post-emergence, 240 h, 125 g ai/ha, postemergence; visual injury after approximately 10 d; 0 to 100 scale (0 no effect, 100 complete control); read-out: Plant response rating, Ragweed
In short: as §1

Compound | pest or weed control at 125 g/ha [1] [%] | pest or weed control at 125 g/ha (Kochia (Kochia scoparia) [2]) [%] | pest or weed control at 500 g/ha (Kochia (Kochia scoparia) [2]) [%] | pest or weed control at 125 g/ha [3] [%] | pest or weed control at 500 g/ha [3] [%] | pest or weed control at 125 g/ha [4] [%] | pest or weed control at 500 g/ha [4] [%] | pest or weed control at 125 g/ha [5] [%] | pest or weed control at 500 g/ha [5] [%] | pest or weed control at 125 g/ha [6] [%] | pest or weed control at 500 g/ha [6] [%] | Corn plant response rating (crop injury, 0 = no effect, 100 = complete kill) at 125 g/ha (corn (Zea mays)) [%] | pest or weed control at 125 g/ha [7] [%] | pest or weed control at 125 g/ha [8] [%] | pest or weed control at 125 g/ha [9] [%] | plant injury at 125 g/ha [10] [%] | pest or weed control at 125 g/ha (Kochia (Kochia scoparia) [11]) [%] | pest or weed control at 125 g/ha [12] [%] | pest or weed control at 125 g/ha [13] [%] | pest or weed control at 125 g/ha [14] [%] | other results
CN1C[C@H](c2cc(F)cc(F)c2)[C@@H](C(=O)Nc2ccc(F)cc2C(F)(F)F)C1=O [Compound 758] | 30 | 0 | 60 | 100 | 100 | 100 | 100 | 0 | 20 | 0 | 0 | 20 | 40 | 0 | 0 | 0 | 0 | 70 | 80 | 0 | pest or weed control at 500 g/ha ([1]; 500 g ai/ha, 0 to 100 scale, 0 = no effect, 100 = complete control): 70%; pest or weed control at 125 g/ha [15]: 0%
CN1C[C@H](c2cc(F)cc(F)c2)[C@@H](C(=O)Nc2c(F)cccc2F)C1=O [Compound 759] | 0 | 0 | 20 | 90 | 100 | 70 | 100 | 0 | 0 | 0 | 0 | 0 | 0 | 0 | 0 | 0 | 0 | 70 | 20 | 0 | pest or weed control at 125 g/ha [15]: 0%
CCc1ccc([C@H]2CNC(=S)[C@@H]2C(=O)Nc2cccc(F)c2C)cc1 [Compound 761] | 0 | 30 | 80 | 90 | 100 | 60 | 90 | 0 | 0 | 0 | 0 | 0 | 0 | 0 | 0 | 0 | 0 | 70 | 60 | 0 | pest or weed control at 125 g/ha [15]: 0%
CCc1ccc([C@H]2CNC(=S)[C@@H]2C(=O)Nc2cccc(F)c2F)cc1 [Compound 762] | 20 | 0 | 50 | 100 | 100 | 70 | 100 | 0 | 0 | 0 | 50 | 0 | 0 | 0 | 0 | 0 | 0 | 90 | 20 | 0 | pest or weed control at 125 g/ha [15]: 0%
CCc1ccc([C@H]2CNC(=S)[C@@H]2C(=O)Nc2ccccc2SC)cc1 [Compound 763] | 0 | 30 | 30 | 80 | 80 | 0 | 50 | 0 | 30 | 0 | 0 | 0 | 0 | 0 | 0 | 0 | 0 | 0 | 0 | 0 | pest or weed control at 125 g/ha [15]: 0%
O=C1NC[C@H](c2ccc3c(c2)OCO3)[C@H]1C(=O)Nc1ccccc1F [Compound 767] | 0 | 0 | 0 | 90 | 90 | 0 | 90 | 0 | 0 | 0 | 0 | 0 | 0 | 0 | 0 | 0 | 0 | 70 | 0 | 0 | pest or weed control at 125 g/ha [15]: 0%
